Legend:
[1] = tested on: pancreatic adenocarcinoma; assay: Kaplan-Meier survival analysis comparing adjuvant treatments within histone groups, RTOG 9704 TMA; type: in vivo, human; conditions: adjuvant chemotherapy; for overall or disease-free survival, gemcitabine or 5-FU: each of the high level histone subgroups
Method: METHODS: Tissue microarrays (TMAs) from two large pancreatic adenocarcinoma cohorts were examined, including a 195 patient cohort from RTOG 9704, a multi-center phase III randomized treatment trial comparing adjuvant gemcitabine versus 5-fluorouracil (5-FU), and a 140 patient cohort of Stage I or II cancer from UCLA Medical Center. Immunohistochemistry for three histone modifications (H3K4me2, H3K9me2 and H3K18ac) was performed. Positive tumor cell staining of the histone modifications was used to classify patients into low and high staining groups, which were related to clinicopathologic parameters and clinical outcome measures.
Pancreatic adenocarcinoma patients and tissue microarrays. The RTOG 9704 pancreatic cancer tissue microarray (TMA) consisted of 229 cases of pancreatic adenocarcinoma obtained from patients enrolled in RTOG 9704, a phase III randomized post-operative adjuvant treatment trial comparing 5-fluorouracil (5-FU) to gemcitabine before and after chemoradiation (Regine et al., Jama 299:1019-26 (2008)). In RTOG 9704, all patients received adjuvant chemotherapy (5-FU or gemcitabine) for durations of one month before and three months following chemoradiation therapy, which included 5-FU infusion as a radiation sensitizer. Clinicopathologic factors were collected as part of patient enrollment, as were treatment schedules and follow-up clinical information including toxicity, overall survival and disease-free survival. The UCLA Stage I/II pancreatic cancer TMA consisted of 140 cases of AJCC stage I or II pancreatic adenocarcinoma from the UCLA Department of Pathology and Laboratory Medicine archives, representing patients who underwent complete gross resection of tumor at UCLA Medical Center between 1987 and 2005. All work was performed with appropriate institutional review board approvals.
Statistical Analysis. Specific histone cut-offs were previously shown to predict survival in subsets of patients with multiple types of carcinoma, including prostate, lung and kidney (Seligson et al., Am J Pathol 174:1619-1628 (2009); Seligson et al., Nature 435:1262-6 (2005)). In order to standardize and apply these same cut-offs in both pancreatic cancer TMAs, each tumor was assigned a percent rank value (quantile) based on median percent of cells staining relative to its TMA dataset using the SAS system procedure RANK with TIES=LOW option, which assigns the smallest of the corresponding ranks for the ties data values. Each tumor was then assigned into a low or high level staining group based on its percent rank, including H3K4me2 (<60 vs. ≧60 percent rank), H3K9me2 (<30 vs. ≧30 percent rank for the RTOG TMA or <25 vs. ≧25 percent rank for the UCLA Stage I/II TMA) and H3K18ac (<35 vs. ≧35 percent rank). Survival estimates were generated and visualized using the Kaplan-Meier method and survival curves were compared using the log-rank test. Multivariate Cox proportional hazards models were used to test statistical independence and significance of multiple predictors. Overall survival time was measured from the date of randomization (RTOG 9704 TMA) or date of surgery (UCLA Stage I/II TMA) to the date of death due to any cause or last follow-up. Disease-free survival time was only determined for RTOG 9704 and was measured from the date of randomization to the date of first disease-free failure event defined as local or regional disease relapse, distant disease, second primary or death due to any cause. […]

[2] = tested on: pancreatic adenocarcinoma; conditions: setting of fluorouracil-based chemoradiation; resected pancreatic cancer; cited from earlier work

Row | SMILES | overall or disease-free survival, gemcitabine or 5-FU ([1]; data not shown) | overall survival, 5-FU versus gemcitabine ([1]; low H3K4me2 subgroup, data not shown) | disease-free survival, 5-FU versus gemcitabine ([1]; low H3K4me2 subgroup, log rank test p=0.014) | disease-free survival, 5-FU versus gemcitabine ([1]; low H3K18ac subgroup, log rank test p=0.015) | survival benefit of adjuvant gemcitabine over adjuvant 5-FU [2]
1 | O=c1[nH]cc(F)c(=O)[nH]1 [5-FU, 5-fluorouracil] | no significant differences | non-significant trend towards worse overall survival | worse disease-free survival | worse disease-free survival | –
2 | Nc1ccn([C@@H]2O[C@H](CO)[C@@H](O)C2(F)F)c(=O)n1 [gemcitabine] | no significant differences | – | – | – | non-statistically significant survival benefit
